{
  "source": "paper PMC12992107",
  "about": "(Journal of medicinal chemistry, 2024)",
  "key": {"P. falciparum strain 3D7": {"system": "P. falciparum strain 3D7", "experiment": "In vitro parasite reduction ratio", "assay_type": "cell-based, Plasmodium falciparum", "conditions": "10-fold IC50; 28 days recovery in drug-free medium"}, "Plasma stability": {"experiment": "Plasma stability", "assay_type": "in vitro ADME, human"}, "[1]": {"experiment": "Plasma protein binding, standard equilibrium dialysis assay", "assay_type": "in vitro ADME"}, "HeLa cells": {"system": "HeLa cells", "conditions": "read-out: HeLa IC50 (n1; n2); previously published; cited from earlier work"}, "HEK293 cells": {"system": "HEK293 cells", "conditions": "read-out: HEK293 IC50 (n1; n2); previously published; cited from earlier work"}, "Plasmodium berghei [2]": {"system": "Plasmodium berghei", "conditions": "previously published, cited from earlier work"}, "Pf NF54": {"system": "Pf NF54", "experiment": "72 h [3H]hypoxanthine incorporation assay", "assay_type": "cell-based", "conditions": "Plasmodium falciparum, NF54, 72 h"}, "[3]": {"system": "chloroquine-sensitive and chloroquine-resistant P. falciparum strains", "experiment": "Initial antiplasmodial in vitro assessment", "assay_type": "cell-based", "conditions": "Plasmodium falciparum, read-out: IC50 (range over strains)"}, "P. falciparum Dd2 Polδ": {"system": "P. falciparum Dd2 Polδ", "experiment": "Single-step resistance selection assay", "assay_type": "cell-based, Plasmodium falciparum"}, "P. falciparum isolates": {"system": "P. falciparum isolates", "experiment": "Ex vivo growth inhibition assay of clinical isolates", "assay_type": "cell-based", "conditions": "Plasmodium falciparum"}, "RF12 (PH-1263-C)": {"system": "RF12 (PH-1263-C)", "experiment": "microbe, parasite or virus in culture", "assay_type": "cell-based", "conditions": "Plasmodium falciparum, 72 h, read-out: IC50, RF12 (PH-1263-C)"}, "[4]": {"experiment": "Chemical stability in aqueous solution", "assay_type": "physicochemical", "conditions": "phosphate buffer pH 7.4, room temperature, over 24 h, n = 3"}, "[5]": {"experiment": "Microsomal binding, equilibrium dialysis", "assay_type": "in vitro ADME", "conditions": "human, human liver microsomes, microsomal binding (fraction bound), 1 μM in 0.5 mg/mL HLMs"}, "[6]": {"experiment": "Snapshot pharmacokinetics", "assay_type": "in vivo", "conditions": "P. berghei mice, single oral administration of 3, 10 and 30 mg/kg"}, "[7]": {"experiment": "Plasma protein binding, dilution method"}, "Plasmodium berghei [8]": {"system": "Plasmodium berghei", "experiment": "Standard four-day Peters test in P. berghei-infected mice", "conditions": "for cured: parasite-free mice on day 30"}, "[9]": {"experiment": "Calculation of hepatic clearance and hepatic extraction ratio", "conditions": "calculated from in vitro assays"}, "Pf Dd2": {"system": "Pf Dd2", "experiment": "Antiplasmodial in vitro activity, HRP2 ELISA", "assay_type": "cell-based", "conditions": "Plasmodium falciparum, DD2, read-out: Pf Dd2 IC50 ± SD"}, "[10]": {"conditions": "cited from earlier work"}, "[11]": {"conditions": "cited from earlier work", "remark": "listed apart in the source"}},
  "note": "Like-named read-outs stand apart in the source and are kept apart here. Marks after values point to notes of the source that are not given here.",
  "data": [
    {"smiles": "COc1ccc(/N=C(\\N)CC(O)c2cc3c(F)cc(F)cc3c3cc(C(F)(F)F)ccc23)cc1", "note": "(centres unmarked) [1 (TKK129)]", "values": [
      {"measurement": "exposure time reducing the number of viable parasites to baseline", "setting": "P. falciparum strain 3D7", "value": "≤ 24", "unit": "h"},
      {"measurement": "plasma stability", "setting": "Plasma stability; at 37 °C, time without decrease", "value": 24, "unit": "h at 37 °C"},
      {"measurement": "fraction unbound at 24 h, 25 ng/mL", "setting": "[1]", "value": "< 0.01"},
      {"measurement": "IC50", "setting": "HeLa cells", "value": 46100, "unit": "nM"},
      {"measurement": "IC50", "setting": "HEK293 cells", "value": 36800, "unit": "nM"},
      {"measurement": "MSD", "setting": "Plasmodium berghei [2]; oral 4 × 3 mg/kg", "value": "euthanized"},
      {"measurement": "cured", "setting": "Plasmodium berghei [2]; oral 4 × 3 mg/kg", "value": "0/3"},
      {"measurement": "cured", "setting": "Plasmodium berghei [2]; oral 4 × 10 mg/kg", "value": "0/3"},
      {"measurement": "cured", "setting": "Plasmodium berghei [2]; oral 4 × 30 mg/kg", "value": "1/3"},
      {"measurement": "cured", "setting": "Plasmodium berghei [2]; oral 4 × 50 mg/kg", "value": "2/3"}
    ]},
    {"smiles": "Cl.N=C(CC(O)c1cc2c(F)cc(F)cc2c2cc(C(F)(F)F)ccc12)Nc1ccc(F)cc1", "note": "(centres unmarked) [2 (TKK130), (Z)-3-(1,3-Difluoro-6-(trifluoromethyl)phenanthrene-9-yl)-N′-(4-fluorophenyl)-3-hydroxypropanimidamid Hydrochlorid]", "values": [
      {"measurement": "IC50", "setting": "Pf NF54; read-out: IC50, NF54", "value": 12, "unit": "nM"},
      {"measurement": "IC50", "setting": "[3]", "value": "2 to 12", "unit": "nM"},
      {"measurement": "exposure time reducing the number of viable parasites to baseline", "setting": "P. falciparum strain 3D7", "value": "≤ 24", "unit": "h"},
      {"measurement": "day on which treated cultures were clear", "setting": "P. falciparum Dd2 Polδ; 9 nM (3-fold IC50), inocula 2 × 10^7 and 2 × 10^9", "value": 4, "unit": "days"},
      {"measurement": "parasite growth after selection", "setting": "P. falciparum Dd2 Polδ; 9 nM, inocula 2 × 10^7 and 2 × 10^9, 60 days of recovery time", "value": "no subsequent parasite growth could be observed"},
      {"measurement": "IC50", "setting": "P. falciparum isolates; read-out: max IC50", "value": 25.1, "unit": "nM"},
      {"measurement": "IC50", "setting": "P. falciparum isolates; read-out: min IC50", "value": 1.4, "unit": "nM"},
      {"measurement": "IC50", "setting": "RF12 (PH-1263-C)", "value": 4, "unit": "nM"},
      {"measurement": "chemical stability", "setting": "[4]", "value": "> 90", "unit": "%"},
      {"measurement": "half-life at 25 ng/mL", "setting": "Plasma stability; human, plasma", "value": 67, "unit": "h"},
      {"measurement": "fraction unbound at 24 h, 1 μM", "setting": "[5]", "value": 0.026},
      {"measurement": "time at which maximum concentration was reached", "setting": "[6]", "value": 4, "unit": "h"},
      {"measurement": "fraction unbound at 24 h, 25 ng/mL", "setting": "[7]; plasma", "value": 0.004},
      {"measurement": "signs of toxicity during the in vivo studies", "setting": "Plasmodium berghei [8]; mice, oral dosing", "value": "no obvious signs of toxicity"},
      {"measurement": "cured", "setting": "Plasmodium berghei [8]; oral 4 × 3 mg/kg", "value": "0/3"},
      {"measurement": "cured", "setting": "Plasmodium berghei [8]; oral 4 × 10 mg/kg", "value": "1/3"},
      {"measurement": "cured", "setting": "Plasmodium berghei [8]; oral 4 × 30 mg/kg", "value": "3/3"},
      {"measurement": "cured", "setting": "Plasmodium berghei [8]; oral 4 × 50 mg/kg", "value": "3/3"},
      {"measurement": "hepatic extraction ratio", "setting": "[9]", "value": 0.17},
      {"measurement": "hepatic clearance", "setting": "[9]; hepatic blood flow 1500 mL/min", "value": 0.25, "unit": "L/min"}
    ]},
    {"smiles": "C[C@@H]1CC[C@H]2[C@@H](C)C(=O)O[C@@H]3O[C@@]4(C)CC[C@@H]1[C@]32OO4", "note": "[AS, Artemisinin, reference compound]", "values": [
      {"measurement": "cured", "setting": "Plasmodium berghei [8]; oral 4 × 30 mg/kg", "value": "0/10"}
    ]},
    {"smiles": "CCN(CC)CCCC(C)Nc1ccnc2cc(Cl)ccc12", "note": "(centres unmarked) [CQ, Chloroquine]", "values": [
      {"measurement": "IC50", "setting": "Pf Dd2", "value": "240 ± 130", "unit": "nM"},
      {"measurement": "IC50", "setting": "Pf NF54; read-out: IC50, NF54", "value": 11, "unit": "nM"},
      {"measurement": "IC50", "setting": "Pf NF54; read-out: Pf NF54 IC50 ± SD", "value": "12 ± 1", "unit": "nM"},
      {"measurement": "cured", "setting": "Plasmodium berghei [8]; oral 4 × 30 mg/kg", "value": "0/10"}
    ]},
    {"smiles": "Cc1cc(Nc2ccc(S(F)(F)(F)(F)F)cc2)n2nc(C(C)(F)F)nc2n1", "note": "[DSM265, reference compound]", "values": [
      {"measurement": "day of recrudescence of parasites", "setting": "P. falciparum Dd2 Polδ; 12 nM (3-fold IC50), inoculum 2 × 10^7 per flask, all three replicate flasks", "value": 16, "unit": "days"}
    ]},
    {"smiles": "CCCCN(CCCC)CCC(O)c1cc2c(Cl)cc(Cl)cc2c2cc(C(F)(F)F)ccc12", "note": "(centres unmarked) [Hf, Halofantrine]", "values": [
      {"measurement": "microsomal stability (60 min), Clint", "setting": "[10]", "value": "Clint = 26.9 μL/min/mg^d"},
      {"measurement": "plasma protein binding", "setting": "[11]; plasma", "value": ">99^d %"}
    ]},
    {"smiles": "CCCCN(CCCC)CC(O)c1cc(Cl)cc2c1-c1ccc(Cl)cc1/C2=C/c1ccc(Cl)cc1", "note": "(centres unmarked) [LUM, Lumefantrine]", "values": [
      {"measurement": "microsomal stability (60 min), Clint", "setting": "[10]", "value": "Clint = <7 μL/min/mg^d"},
      {"measurement": "plasma protein binding", "setting": "[11]", "value": ">99^d %"},
      {"measurement": "cured", "setting": "Plasmodium berghei [8]; oral 4 × 30 mg/kg", "value": "3/3"}
    ]},
    {"smiles": "O=C1C(O)=C([C@H]2CC[C@H](c3ccc(Cl)cc3)CC2)C(=O)c2ccccc21", "note": "[atovaquone, reference compound]", "values": [
      {"measurement": "exposure time reducing the number of viable parasites to baseline", "setting": "P. falciparum strain 3D7", "value": 120, "unit": "h"}
    ]},
    {"smiles": "CCC(C)n1ncn(-c2ccc(N3CCN(c4ccc(OCC5COC(Cn6cncn6)(c6ccc(Cl)cc6Cl)O5)cc4)CC3)cc2)c1=O", "note": "(centres unmarked) [itraconazole, reference compound]", "values": [
      {"measurement": "fraction unbound at 24 h, 25 ng/mL", "setting": "[7]; plasma diluted 1:10 or 1:20 in 0.9% saline", "value": 0.006}
    ]},
    {"smiles": "CCc1nc(N)nc(N)c1-c1ccc(Cl)cc1", "note": "[pyrimethamine, reference compound]", "values": [
      {"measurement": "exposure time reducing the number of viable parasites to baseline", "setting": "P. falciparum strain 3D7", "value": 72, "unit": "h"}
    ]}
  ]
}
